According to PMC5041077, “Metabolic profile and safety of piperlongumine” (Scientific Reports, 2016):

Assays:
[1] = Piperlongumine plasma protein binding (ultrafiltration); format: in vitro ADME
Protocol: Piperlongumine-protein binding. An in vitro study with a microsomal and plasma protein was carried out using a concentration of PPL approximately corresponding to its S50 (n = 3). The plasma protein binding was evaluated to predict the in vivo clearance, using a plasma protein concentration of 42 mg/mL. The samples were incubated with pooled human liver microsomes at 37 °C as described in section above. The same V0 conditions obtained (protein concentration and incubation time) were applied in this study, but in the absence of the cofactor NADPH. Furthermore, a control sample without protein was analyzed simultaneously for comparison purposes. These mixtures were added to the centrifugal filter device (Microcon YM-30, 30,000 molecular weight cut-off; Millipore Corporation, Bedford, MA, USA) and centrifuged at 21800 x g for 30 min at 37 °C (Hitachi CF16RXII, Himac, Tokyo, Japan). The ultra-filtrate was directly assayed by high-performance liquid chromatography at the conditions previously described.

[2] = Predicted in vivo parameters (in vitro-in vivo scaling); format: in vitro ADME, human
Protocol: In vitro-in vivo scaling has been proposed by some authors. […] PPL microsome and plasma bindings were 23% and 93%, respectively. The predicted parameters, Intrinsic Clearance (CLint), Unbounded Intrinsic Clearance (CLuint), Predicted in vivo Clearance (CL), Hepatic Clearance (CLH) and Hepatic Extraction Ratio (E), are expressed in Table 1.
(§1) The kinetic parameters were calculated from nonlinear regression using GraphPad Prism Version 3.03 (San Diego, CA, USA). The Intrinsic Clearance (CLint) was obtained considering the Hill coefficient. The Unbounded Intrinsic Clearance (CLuint), Predicted in vivo Clearance (CL) and Hepatic Clearance (CLH) were determined according to Subramarian and Tracy[15] and Austin et al.[17]. Hepatic extraction ratio was calculated according to Kashuba et al.[21]. Dose-dependent inhibition parameters were determined employing SigmaPlot version 12.0 (Chicago, IL, USA). The Lineweaver-Burk plot was used to determine the inhibition profile. The second plot of slopes from Lineweaver-Burk plot versus PPL concentrations was utilized to calculate the Ki. The parameters kinact and KI in time-dependent inhibition were calculated employing GraphPad Prism Version 3.03.

[3] = tested on: recombinant human CYP (rhCYP) isoforms; assay: P450 reaction phenotyping by rhCYP isoforms; format: in vitro ADME; conditions: specific inhibitors in pooled HLM and recombinant CYP450 isoforms
Protocol: The capacity of selected major human P450 isoforms to metabolize PPL was screened using human recombinant isoenzymes. Briefly, PPL (S50 concentration) was added into a 200 μL incubation mixture containing P450 isoform (50 pmol/mL for CYP3A4, CYP1A2, CYP2C9, 2B6, 2D6 and 2C19; 25 pmol/mL for CYP2C8 and […]; final concentrations), NADPH regeneration system solution A (1.3 mM NADP^+ and 3.3 mM glucose-6-phosphate), NADPH regeneration system solution B (0.4 U/mL glucose-6-phosphate dehydrogenase), potassium phosphate buffer pH 7.4 (100 mM), except for CYP2C9 where the phosphate buffer was substituted by tris buffer pH 7.5 (100 mM), maintaining for 50 min in shaking water bath. In order to enhance the sensibility one sample was pooled from 4 single reactions. PPL metabolites were analyzed by a GC-MS as described previously. The MS peak areas of PPL metabolites were recorded to determine the contributions of the P450 enzymes.
Phenotyping study at 50 min. In order to evaluate the CYP isoforms involved in M4 formation, a similar study as described in the main text was performed, except by the time of incubation of 50 min (Fig. S13).

CYP1A2 [4] = molecular target: T1, CYP1A2 (Homo sapiens, UniProt P05177); assay: Inhibition of CYP1A2 by piperlongumine (dose-dependent, Ki); format: in vitro ADME
T1 sequence (P05177 whole entry): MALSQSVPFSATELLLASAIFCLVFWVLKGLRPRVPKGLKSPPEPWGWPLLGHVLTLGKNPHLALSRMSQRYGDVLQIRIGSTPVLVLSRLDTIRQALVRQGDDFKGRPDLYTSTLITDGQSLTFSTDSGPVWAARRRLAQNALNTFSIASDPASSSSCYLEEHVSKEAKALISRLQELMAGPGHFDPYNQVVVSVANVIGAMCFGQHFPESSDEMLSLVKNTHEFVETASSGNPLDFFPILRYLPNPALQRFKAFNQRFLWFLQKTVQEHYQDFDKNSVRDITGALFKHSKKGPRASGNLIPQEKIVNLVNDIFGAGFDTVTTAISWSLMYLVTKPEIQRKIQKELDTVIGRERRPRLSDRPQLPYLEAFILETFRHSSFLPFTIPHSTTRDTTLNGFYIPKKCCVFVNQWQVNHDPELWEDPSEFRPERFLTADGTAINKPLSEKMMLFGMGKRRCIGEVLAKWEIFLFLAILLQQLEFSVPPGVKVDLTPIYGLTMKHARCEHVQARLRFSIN
Protocol: In the assay of PPL inhibition in reversible manner, human liver microsomes (0.3 mg/mL final concentration) were the last reagent added into the incubation system to initiate the reaction; after 30 min the reaction was terminated by adding 2 mL of ethyl acetate. Caffeine (64 μM) was added as internal standard and samples were shaken for 10 min at 1500 rpm and centrifuged for 5 min at 2860x g. The organic layers (1.8 mL) were evaporated to dryness under a stream of compressed air at room temperature. The residues were dissolved in 80 μL of the mobile phase and injected in HPLC.
as §1, with “The second plot of slopes from Lineweaver-Burk plot versus PPL concentrations was utilized to calculate the Ki.” left out

CYP1A2 [5] = molecular target: T1, CYP1A2; assay: NADPH-dependent inhibition study; format: in vitro ADME; conditions: PPL at 1/2 IC50, pre-incubation 0 and 30 min
Protocol: NADPH-dependent Inhibition. The mechanism-based inhibition is characterized by dose-, NADPH- and time-dependent cytochrome P450 oxidoreductase, so the NADPH dependence study was performed. […] NADPH regeneration system was added and the mixture was pre-incubated for 0 and 30 min. […] The mixture was incubated by 30 min and the reaction stopped as described previously. Controls without PPL were performed.

CYP2D6 = CYP2D6 (Homo sapiens, UniProt P10635); assay: biochemical
Sequence of CYP2D6 (P10635 whole entry): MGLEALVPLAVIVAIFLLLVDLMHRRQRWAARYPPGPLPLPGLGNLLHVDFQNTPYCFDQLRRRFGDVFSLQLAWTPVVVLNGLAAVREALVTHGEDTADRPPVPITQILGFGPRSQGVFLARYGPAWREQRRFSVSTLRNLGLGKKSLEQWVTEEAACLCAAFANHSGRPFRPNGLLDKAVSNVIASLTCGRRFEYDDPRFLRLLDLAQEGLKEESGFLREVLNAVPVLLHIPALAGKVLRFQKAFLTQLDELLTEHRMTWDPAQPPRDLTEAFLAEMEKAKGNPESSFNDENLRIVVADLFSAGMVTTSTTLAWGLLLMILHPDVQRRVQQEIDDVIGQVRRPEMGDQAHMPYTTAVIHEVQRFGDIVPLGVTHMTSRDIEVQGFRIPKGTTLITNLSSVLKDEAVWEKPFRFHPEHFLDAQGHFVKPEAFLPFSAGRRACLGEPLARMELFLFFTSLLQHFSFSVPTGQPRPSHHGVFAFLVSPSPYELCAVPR

CYP1A2 [6] = molecular target: T1, CYP1A2; assay: IC50 assay, phenacetin O-deethylation in HLM
CYP2C9 = CYP2C9 (Homo sapiens, UniProt P11712); assay: IC50 assay, diclofenac 4'-hydroxylation in HLM
Sequence of CYP2C9 (P11712 whole entry): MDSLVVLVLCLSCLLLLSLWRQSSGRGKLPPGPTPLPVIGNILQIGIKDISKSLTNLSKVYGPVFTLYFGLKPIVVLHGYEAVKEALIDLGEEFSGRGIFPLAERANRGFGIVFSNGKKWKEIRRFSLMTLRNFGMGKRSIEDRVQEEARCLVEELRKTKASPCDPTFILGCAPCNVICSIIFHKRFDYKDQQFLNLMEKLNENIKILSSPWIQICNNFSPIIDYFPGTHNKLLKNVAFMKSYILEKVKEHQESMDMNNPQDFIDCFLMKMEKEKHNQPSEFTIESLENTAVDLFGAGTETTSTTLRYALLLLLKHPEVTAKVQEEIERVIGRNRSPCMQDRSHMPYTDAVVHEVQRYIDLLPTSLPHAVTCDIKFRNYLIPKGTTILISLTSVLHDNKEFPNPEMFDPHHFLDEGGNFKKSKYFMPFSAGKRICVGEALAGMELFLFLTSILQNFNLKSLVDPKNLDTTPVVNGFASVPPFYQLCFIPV

COc1cc(/C=C/C(=O)N2CCC=CC2=O)cc(OC)c1OC [PPL, Piperlongumine]
plasma binding ([1]; PPL approx. S50, plasma protein 42 mg/mL): 93% | fraction unbound at 16 min, 127.7 μM ([1]; plasma protein (42 mg/mL), PPL 127.70 μM, read-out: fuplasma (free fraction of the compound in plasma)): 0.07 | Hepatic Extraction (E) [2]: 0.09 | Predicted in Vivo Clearance (CL) ([2]; 40 mg microsomes/g liver, 20 g liver/kg body weight): 19.79 mL/min/kg | Unbounded Intrinsic Clearance (CLuint) ([2]; corrected for fumic): 29.84 µL/min/mg | Intrinsic Clearance (CLint) ([2]; from HLM kinetic data considering the Hill coefficient): 22.68 µL/min/mg | Hepatic Clearance (CLH) ([2]; liver blood flow 20 mL/min/kg): 1.89 mL/min/kg | main CYP isoenzymes involved in PPL metabolism [3]: CYP1A2 and CYP3A4 | Ki (CYP1A2 [4]): 1.5 µM | mode of inhibition (CYP1A2 [4]; Lineweaver-Burk plot): competitive type | NADPH dependence of CYP oxidative inhibition (CYP1A2 [5]): NADPH-dependent | IC50 (CYP2D6): > 100 µM | IC50 (CYP1A2 [6]): 7.2 µM | IC50 (CYP2C9): > 100 µM
